Results taken from paper PMC6312923 (Life Science Alliance, 2018).

B1: Cdt2^PIP-3A: Cdt2 with I709, Y712, and F713 all mutated to alanine (protein, UniProt Q9NZJ0 1-730, looked up, variant I709A Y712A F713A)
Denticleless protein homolog: MLFNSVLRQPQLGVLRNGWSSQYPLQSLLTGYQCSGNDEHTSYGETGVPVPPFGCTFSSAPNMEHVLAVANEEGFVRLYNTESQSFRKKCFKEWMAHWNAVFDLAWVPGELKLVTAAGDQTAKFWDVKAGELIGTCKGHQCSLKSVAFSKFEKAVFCTGGRDGNIMVWDTRCNKKDGFYRQVNQISGAHNTSDKQTPSKPKKKQNSKGLAPSVDFQQSVTVVLFQDENTLVSAGAVDGIIKVWDLRKNYTAYRQEPIASKSFLYPGSSTRKLGYSSLILDSTGSTLFANCTDDNIYMFNMTGLKTSPVAIFNGHQNSTFYVKSSLSPDDQFLVSGSSDEAAYIWKVSTPWQPPTVLLGHSQEVTSVCWCPSDFTKIATCSDDNTLKIWRLNRGLEEKPGGDKLSTVGWASQKKKESRPGLVTVTSSQSTPAKAPRAKCNPSNSSPSSAACAPSCAGDLPLPSNTPTFSIKTSPAKARSPINRRGSVSSVSPKPPSSFKMSIRNWVTRTPSSSPPITPPASETKIMSPRKALIPVSQKSSQAEACSESRNRVKRRLDSSCLESVKQKCVKSCNCVTELDGQVENLHLDLCCLAGNQEDLSKDSLGPTKSSKIEGAGTSISEPPSPISPYASESCGTLPLPLRPCGEGSEMVGKENSSPENKNWLLAMAAKRKAENPSPRSPSSQTPNSRRQSGKKLPSPVTITPSSMRKACTAAHRKSQEDFCGPEHSTEL
modifications: FLAG tag
notes: Cdt2 with I709, Y712, and F713 all mutated to alanine

Legend:
Format in all cases: cell-based, human
[1] = tested on: UV-C–damaged sites in MCF7 cells; experiment: FRAP of GFP-tagged proteins at sites of local UV-C damage in MCF7 cells
Procedure: (C) MCF7 cells were transfected with the indicated GFP-tagged plasmids and 24 h later they were locally UV-C irradiated (50 J/m^2). 20 min following irradiation, FRAP experiments were conducted at the site of damage and in untreated cells (Fig S1). FRAP data were analysed with easyFRAP. Mean normalized fluorescence intensities at the site of damage as a function of time following photobleaching are shown. (D) MCF7 cells were synchronized in the S phase by treatment with 2-mM thymidine for 24 h. Upon release, cells were transfected with siCdt1 or control siLuc in parallel with a plasmid expressing GFP-tagged Cdt2. Cells were then synchronised in the M phase by treatment with 50 ng/ml nocodazole for 12 h, released into G1 for 5 h, and locally UV-C irradiated (50 J/m^2). 20 min after irradiation, the cells were analysed by FRAP. Mean normalized fluorescence recovery curves at the sites of damage are shown.
To perform micropore UV irradiation, cells were cultured on cover slips, washed twice with PBS, and subsequently covered with an isopore polycarbonate membrane filter (Millipore) with a pore size of either 3 or 5 μm in diameter, and irradiated. UV irradiation was achieved using a UV lamp (SUV-16, As One, Japan) with a dose rate of 0.4 J/m^2·s, which was monitored with a UV radiometer (UVX Radiometer, UVP) at 254 nm, or with a UV box equipped with a UV-C lamp monitored with a VLX-3W radiometer (Vilber Lourmat) at 254 nm (CX-254 sensor). The filter was removed and cells were either fixed or cultured for the indicated time before fixation, and processed for immunofluorescence. For FRAP analysis, cells were cultured for 20 min to allow recruitment to sites of damage before photobleaching.
Cells (HeLa or MCF7) were plated on 35-mm glass-bottom dishes in phenol-red–free medium (Invitrogen). […] A Leica TCS SP5 microscope equipped with a 63x magnification 1.4 NA oil-immersion lens and FRAP booster were used. During FRAP, cells were maintained at 37°C and 5% CO2. A defined circular region of interest with 2 μm diameter (ROI1) was placed in the nucleus and at the recruitment sites. GFP was excited using a 488-nm argon laser line. 50 pre-bleach images were acquired with 3% of the 488-nm line at 60% argon laser intensity, followed by a single bleach pulse on ROI1 using 476-nm and 488-nm laser lines combined at maximum power. In this manner, at least 60% of the fluorescence in ROI1 was bleached successfully. Next, 400 post-bleach images with a 0.052 s interval were recorded. Mean intensities of ROI1, the whole nucleus (ROI2) and an area outside of the nucleus (ROI3) were quantified and exported as .csv format files.

U2OS cells = experiment: Nuclear enlargement / re-replication in U2OS cells; conditions: siCdt2 72 h
Procedure: Next, we examined Cdt1 degradation after the onset of the S phase in the Cdt2^PIP-3A-expressing cells. Cyclin A is present in the S and G2 phase, when Cdt1 should be degraded. Thus, Cdt1 should be present in cells that are negative for cyclin A, and absent in cells that are positive for cyclin A ([Nishitani et al, 2006]; [Xouri et al., 2007a], [2007b]). Cdt1 degradation after the onset of the S phase is carried out by two ubiquitin ligases, CRL1^Skp2 and CRL4^Cdt2. We depleted the substrate recognition subunits, Cdt2 and/or Skp2, by siRNA, and the percentage of Cdt1 positive cells among cyclin A–positive cells was assessed by immunofluorescence. In control siRNA-transfected U2OS cells, ∼2% of cyclin A–positive cells stained positive for Cdt1. […]
Figure 8. […] The frequency of Cdt1-positive (+) cells among cyclin A–positive (+) cells was calculated (n = 3). […] (D) Cells treated with siCdt2 or control siLuc were measured for their nuclear size (n = 200 for each), and are shown in a scatter plot. […]
Double-stranded RNAs were transfected at 100 nM using Oligofectamine (Invitrogen) or HiPerFect (QIAGEN). […] For Cdt1 silencing in Fig 1A and B, unsychronized HeLa cells were transfected twice with 200 nM of Cdt1 siRNA or control luciferase siRNA using Lipofectamine 2000 with a time interval of 24 h and were analysed 48 h after the second transfection. […]

Cdt2 poly-ubiquitination = experiment: Poly-ubiquitination of Cdt2 itself on chromatin in HEK293 cells; conditions: HEK293, MG132 3 h
Procedure: Figure 6. The Cdt2 PIP box is important for its recruitment to DNA damage sites and replication foci and for poly-ubiquitination activity. (A) HEK293 and stable Cdt2^WT or Cdt2^PIP-3A cells were locally UV irradiated, and stained for XPA and FLAG (Cdt2). XPA-positive spots were examined for FLAG signal, and its frequency was counted (%). More than 50 spots were examined. bar:10 μm. […] Bar: 10 μm. […] (D) Whole-cell extracts were prepared from HEK293 and stably transfected cells of Cdt2^WT or Cdt2^PIP-3A cells, separated into soluble (Sup) and chromatin-containing insoluble (Ppt) fractions, and were examined for indicated proteins. The asterisk indicates nonspecific bands. (E) HEK293 and stably transfected cells of Cdt2^WT or Cdt2^PIP-3A were treated with MG132 for 3 h. Whole-cell extracts (WCE) were prepared, separated into soluble (Sup) and insoluble (Ppt) fractions, and blotted with the indicated antibodies.
To consider this possibility, asynchronously growing control HEK293 cells and cells expressing Cdt2^WT or Cdt2^PIP-3A were treated with proteasome inhibitor MG132 and the levels of poly-ubiquitinated Cdt1 were examined. […] Cdt2^PIP-3A-expressing cells however had reduced level of both poly-ubiquitinated Cdt1 and p21 on chromatin.

PCNA mono-ubiquitination = experiment: Mono-ubiquitination of PCNA; conditions: in comparison with Cdt2^wt-expressing cells, Fig S7B
From the text: Figure S7. Cdt2 PIP box is important for CRL4^Cdt2 activity in U2OS cells. (A) U2OS stable cells expressing Cdt2^WT or Cdt2^PIP-3A. U2OS cells were transfected with expression vectors for Cdt2^WT-FLAG or Cdt2^PIP-3A-FLAG, and isolated stable clones were verified by immunofluorescent analysis and Western blot analysis. Frequency of expressing cells for each construct was shown (%). (B) Poly-ubiquitination assay with U2OS stable cells. U2OS cells and Cdt2^WT-3FLAG or Cdt2^PIP-3A-3FLAG expressing stable U2OS cells were treated with MG132 for 3 h or not (−), and whole-cell extracts were prepared for Western blotting. (C) Cells were transfected with siCdt2 or control siLuc for 72 h, irradiated with UV (+, 5 J/m^2) or not (−), and collected 1h later for Western blotting. Relative levels of Cdt1 were shown, UV (−) level set as 1.0 (average of two independent experiments).

[2] = GFP-tagged, site of UV-C damage (50 J/m^2), 20 min after irradiation

Molecule | half-recovery time [1, 2] [s] | immobile fraction [1, 2] [%] | FRAP binding kinetics at damage sites after Cdt1 depletion ([1]; MCF7 synchronized in G1, siCdt1 versus siLuc, Fig 1D) | enlarged nuclei (re-replication) phenotype (U2OS cells) | poly-ubiquitination of Cdt2 on chromatin (Cdt2 poly-ubiquitination) | mUb-PCNA level (PCNA mono-ubiquitination)
Cdt2: Cdt2 tagged with GFP, transiently expressed in MCF7 cells | 0.83 | 16 | remain the same despite the absence of Cdt1 | rescued | – | –
B1 | – | – | – | – | severely reduced | decreased
